Reference: the CheMixHub viscosity set
“And” between values parts separate entries of the source, which are not always exact repeats. Identical values can stand only once.

Key:
[1] = xn = mol fraction of the nth substance listed

C1CCC(C2CCCCC2)CC1
102 kPa
Conditions	viscosity [mPa·s]
293.15 K	4.06
303.15 K	3.18
313.15 K	2.56
323.15 K	2.1

CC(=O)[O-].C[N+]1(CC2CO2)CCCC1=O (stereo not drawn)
101 kPa
Conditions	viscosity
293.15 K	6.55 mPa·s
298.15 K	5.55 mPa·s
303.15 K	4.77 mPa·s
308.15 K	4.13 mPa·s and 4.14 mPa·s
313.15 K	3.62 mPa·s

CCCCC(=O)O
Conditions	viscosity [mPa·s]
298.15 K, 101 kPa	1.97

CCCCCCCCCCCCCC(=O)OCC
100 kPa
Conditions	viscosity [mPa·s]
308.15 K	3.322
318.15 K	2.699
323.15 K	2.451

CCCCCCCCCCCCOC(C)=O
Conditions	viscosity [mPa·s]
303.15 K, 101.3 kPa	3.089

CCCCCCCC[N+](C)(CCCCCCCC)CCCCCCCC.[Cl-]
101 kPa
Conditions	viscosity [mPa·s]
298.15 K	2391
303.15 K	1602
308.15 K	1067
313.15 K	766.1
318.15 K	568.9

CCCCO
Conditions	viscosity
293.15 K, 100 kPa	2.873 mPa·s and 2.61 mPa·s and 2.868 mPa·s
293.15 K, 101 kPa	2.929 mPa·s and 2.868 mPa·s
293.15 K, 101.33 kPa	2.9 mPa·s
298 K, 101.3 kPa	2.507 mPa·s
298 K, 101.33 kPa	2.52 mPa·s
298.15 K, 101.3 kPa	2.442 mPa·s
303 K, 101.33 kPa	2.095 mPa·s
303.15 K, 101 kPa	2.121 mPa·s and 2.002 mPa·s and 2.12 mPa·s
303.15 K, 101.3 kPa	2.129 mPa·s
308 K, 101.3 kPa	1.903 mPa·s
308.15 K, 101.3 kPa	1.856 mPa·s
308.15 K, 101.33 kPa	1.929 mPa·s and 1.949 mPa·s
313 K, 101.3 kPa	1.62 mPa·s
313.15 K, 101 kPa	1.7 mPa·s and 1.687 mPa·s
313.15 K, 101.3 kPa	1.692 mPa·s and 1.817 mPa·s
318 K, 101.3 kPa	1.456 mPa·s
318.15 K, 100 kPa	1.563 mPa·s
318.15 K, 101.33 kPa	1.487 mPa·s
323 K, 100 kPa	1.215 mPa·s
323 K, 101.3 kPa	1.334 mPa·s
323.15 K, 101 kPa	1.361 mPa·s and 1.329 mPa·s
323.15 K, 101.33 kPa	1.393 mPa·s and 1.393 mPa·s and 1.09 mPa·s

CCCCOCCOCCOCCCC
101.3 kPa
Conditions	viscosity [mPa·s]
298.15 K	2.16
308.15 K	1.762
318.15 K	1.408

CCCC[n+]1ccc(C)cc1.N#C[S-]
101 kPa
Conditions	viscosity [mPa·s]
298.15 K	85.69
308.15 K	51.75
318.15 K	33.88

CCOC(=O)C(Cl)(Cl)Cl
Conditions	viscosity [mPa·s]
323.15 K, 101 kPa	1.037

CCOC(=O)Cn1cc[n+](C)c1.[Cl-]
Conditions	viscosity [mPa·s]
298.15 K, 101 kPa	348.6

CCn1cc[n+](C)c1.O=C([O-])C(F)(F)C(F)(F)C(F)(F)C(F)(F)F
101 kPa
Conditions	viscosity [mPa·s]
298.15 K	107.5
308.15 K	65.87
318.15 K	43.09

CSC
Conditions	viscosity [mPa·s]
293.15 K, 101 kPa	0.307

Cc1cccnc1
Conditions	viscosity [mPa·s]
298.15 K, 101 kPa	0.8723

Fc1c(F)c(F)c(F)c(F)c1F
viscosity [mPa·s]
Conditions	293.15 K	298.15 K	303.15 K	308.15 K	313.15 K	318.15 K	323.15 K
101 kPa	0.951	–	0.793	–	0.664	–	0.591
101.33 kPa	0.9446	0.8695	–	0.7631	–	0.6708	–

NCCN1CCNCC1
100 kPa
Conditions	viscosity [mPa·s]
298.15 K	14.48
308.15 K	11.34
318.15 K	7.1

NCCNCCN
101.33 kPa
Conditions	viscosity [mPa·s]
298.15 K	5.52
308.15 K	3.865
318.15 K	3.048
323.15 K	2.698

C1CCC(C2CCCCC2)CC1 + c1ccc2c(c1)CCCC2
viscosity [mPa·s], [1], 102 kPa
Conditions	x2 = 0.1226	x2 = 0.2394	x2 = 0.3504	x2 = 0.4561	x2 = 0.5573	x2 = 0.6537	x2 = 0.747	x2 = 0.8343	x2 = 0.9189
293.15 K	3.67	3.35	3.08	2.87	2.7	2.55	2.44	2.34	2.28
303.15 K	2.91	2.67	2.48	2.33	2.2	2.09	2	1.93	1.88
313.15 K	2.36	2.19	2.04	1.93	1.83	1.75	1.68	1.62	1.58
323.15 K	1.95	1.82	1.71	1.62	1.54	1.48	1.43	1.38	1.35

C=C1CCC2CC1C2(C)C (stereo not drawn) + c1ccccc1
viscosity [mPa·s], [1], 101 kPa
Conditions	x2 = 0.3052	x2 = 0.4296	x2 = 0.5395	x2 = 0.6373	x2 = 0.7249	x2 = 0.8039	x2 = 0.8754	x2 = 0.9405
303.15 K	1.187	0.998	0.867	0.759	0.691	0.646	0.614	0.593
308.15 K	1.106	0.936	0.807	0.71	0.655	0.619	0.587	0.566
313.15 K	1.022	0.866	0.749	0.658	0.614	0.583	0.556	0.537

CCCCC(=O)O + c1ccccc1
[1], 298.15 K, 101 kPa
Conditions	viscosity [mPa·s]
x1 = 0.04	0.62
x1 = 0.078	0.639
x1 = 0.12	0.662
x1 = 0.16	0.687
x1 = 0.34	0.825
x1 = 0.43	0.92
x1 = 0.53	1.062
x1 = 0.75	1.436

Cc1cccc(N)c1 + c1ccccc1
[1], 303.15 K, 101.33 kPa
Conditions	viscosity [mPa·s]
x1 = 0.196	0.695
x1 = 0.405	0.87
x1 = 0.598	1.15
x1 = 0.795	1.54

NC(N)=S + c1ccncc1
[1], 298.15 K, 101 kPa
Conditions	viscosity [mPa·s]
x1 = 0.0572	1.251
x1 = 0.13	2.019
